The results in this text go back to ChEMBL document CHEMBL3085693, “Discovery of a potent inhibitor of replication protein a protein-protein interactions using a fragment-linking approach” (J Med Chem, 2013).

The target of experiment [1] is T1, Replication protein A 70 kDa DNA-binding subunit (Homo sapiens, UniProt P27694). The experiment can be described thus: Binding affinity to RPA70N (1 to 120) site2 (unknown origin) expressed in Escherichia coli BL21-DE3 cells by NMR spectroscopy.
For experiment [2], the target named is T1, Replication protein A 70 kDa DNA-binding subunit. The experiment can be described thus: Binding affinity to RPA70N (1 to 120) site1 (unknown origin) expressed in Escherichia coli BL21-DE3 cells by NMR spectroscopy.
Experiment [3] shares this target. Description: Binding affinity to RPA70N (1 to 120) (unknown origin) expressed in Escherichia coli BL21-DE3 cells by NMR spectroscopy.
For experiment [4] the target is unchanged. The experiment can be described thus: Binding affinity to RPA70N (1 to 120) (unknown origin) expressed in Escherichia coli BL21-DE3 cells by FPA assay.
Experiment [5] shares this target. Description: Binding affinity to RPA70NAB (unknown origin) by FPA assay.
The target is the same in experiment [6]. Description: Displacement of FITC-ss-DNA from RPA70AB domain (unknown origin) by FPA assay.
Experiment [7] shares this target. The experiment can be described thus: Displacement of FITC-ss-DNA from RPA70NAB domain (unknown origin) by FPA assay.
Experiment [8] shares this target. Description: Displacement of FITC-ATRIP2 from RPA70NAB domain (unknown origin) by FPA assay.
Experiment [9] shares this target. Description: Displacement of FITC-ATRIP2 from RPA70N (1 to 120) (unknown origin) by FPA assay.

A value given as a limit tells only on which side of the number the result lay.

T1 sequence (P27694 whole entry): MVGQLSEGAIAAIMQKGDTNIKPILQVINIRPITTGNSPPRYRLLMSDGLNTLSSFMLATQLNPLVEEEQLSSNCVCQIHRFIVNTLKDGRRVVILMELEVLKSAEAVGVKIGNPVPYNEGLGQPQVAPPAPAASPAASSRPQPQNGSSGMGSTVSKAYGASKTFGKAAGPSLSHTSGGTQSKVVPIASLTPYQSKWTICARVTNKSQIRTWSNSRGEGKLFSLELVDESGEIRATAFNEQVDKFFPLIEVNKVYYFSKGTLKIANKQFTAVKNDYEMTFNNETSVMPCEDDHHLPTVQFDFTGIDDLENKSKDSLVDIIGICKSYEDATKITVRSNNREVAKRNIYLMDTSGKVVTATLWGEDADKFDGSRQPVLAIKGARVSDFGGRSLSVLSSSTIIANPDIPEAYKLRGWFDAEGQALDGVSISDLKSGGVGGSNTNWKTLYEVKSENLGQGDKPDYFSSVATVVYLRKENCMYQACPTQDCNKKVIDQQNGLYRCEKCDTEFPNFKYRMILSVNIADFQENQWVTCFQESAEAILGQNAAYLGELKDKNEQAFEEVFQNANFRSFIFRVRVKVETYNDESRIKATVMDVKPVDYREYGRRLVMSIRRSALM

A word on the Kd: it is the constant that tells how readily two partners part at equilibrium. High values mean weaker binding, low ones tighter binding. Consider `O=C(O)c1cc(-c2ccc(F)cc2)n[nH]1`, for which the Kd in experiment [1] worked out at 1.12 mM. This lies in the millimolar range.
`Cc1cccc2c(-c3ccccc3)c(C(=O)O)[nH]c12`: the Kd in [2] was 640 µM.
In the case of `O=C(O)c1ccc(-c2ccc(F)c(Cl)c2)o1`, the Kd in [1] was 1.4 mM; in [2], 710 µM.
For `Cc1cccc(-n2nc(C(=O)O)cc2-c2ccccc2)c1` the same measures were > 2 mM and 580 µM.
`CCc1c(O)[nH]c2nc3ccccc3n2c1=O` had a Kd in experiment [1] of 1.62 mM.
For `Cc1cccc(-n2nc(C(=O)O)cc2-c2ccc(OCc3ccc(-c4ccc(C(=O)O)o4)cc3)cc2)c1`, the Kd in [3] stood at 26 µM; in experiment [4], 20 µM.
`O=C(O)c1cc(-c2ccc(CNC(=S)c3ccc(-c4ccc(C(=O)O)o4)cc3Cl)cc2)n(-c2ccc(Cl)c(Cl)c2)n1`: the Kd worked out at 290 nM in experiment [5]; 5.2 µM in [6]; 2300 nM in experiment [7]; 323 nM in [8]; 190 nM in experiment [9]; 0.19 µM in [4].
`O=C(O)c1cc(-c2ccc(CNC(=O)c3ccc(-c4ccc(C(=O)O)o4)cc3Cl)cc2)n(-c2ccc(Cl)c(Cl)c2)n1` yielded a Kd in [3] of 2.9 µM.
